Laboratory results published in patent US20230219904A1 (SYNGENTA CROP PROTECTION AG, priority 2020, published 2023).

What was measured:
Assay type in all cases: in vivo
Details in all cases: evaluated after 13 days
[1] = system: Setaria faberi (SETFA); test: Post-emergence herbicidal glasshouse test (Table B1)
Method in brief: (§1)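 Spraying at 500 g/h unless indicated occurs either one day after sowing (pre-emergence) or after 8 days of cultivation (post-emergence). Percentage damage is then assessed after 13 days and binned as 5=80-100%, 4=60-79%, 3=40-59%, 2=20-39%, 1=0-19%.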

[2] = system: Ipomoea hederacea (IPOHE); test: as above
Method in brief: as §1

[3] = system: Echinochloa crus-galh (ECHCG); test: as above
Method in brief: as §1

[4] = system: Abutilon theophrasti (ABUTH); test: as above
Method in brief: as §1

[5] = system: Amaranthus retoflexus (AMARE); test: as above
Method in brief: as §1

[6] = system: Setaria faberi (SETFA); test: Pre-emergence herbicidal glasshouse test (Table B1)
Method in brief: as §1

[7] = system: Ipomoea hederacea (IPOHE); test: as above
Method in brief: as §1

[8] = system: Echinochloa crus-galh (ECHCG); test: as above
Method in brief: as §1

[9] = system: Abutilon theophrasti (ABUTH); test: as above
Method in brief: as §1

[10] = system: Amaranthus retoflexus (AMARE); test: as above
Method in brief: as §1

`COc1ccc(C(=O)Nc2nnnn2C)c(Cl)c1NC(C)=O` [Compound 1.030, 3-acetamido-2-chloro-4-methoxy-N-(1-methyltetrazol-5-yl)benzamide] was tested, and the “POST Application SETFA, percentage damage on five-point scale” value ([1]; applied at 500 g/h) was 5 (5=80-100%), the “POST Application IPOHE, percentage damage on five-point scale” value ([2]; applied at 500 g/h) was 4 (4=60-79%) and the “POST Application ECHCG, percentage damage on five-point scale” value ([3]; applied at 500 g/h) was 5 (5=80-100%). The “POST Application ABUTH, percentage damage on five-point scale” value ([4]; applied at 500 g/h) was 5 (5=80-100%), the “POST Application AMARE, percentage damage on five-point scale” value ([5]; applied at 500 g/h) was 5 (5=80-100%) and the “PRE Application SETFA, percentage damage on five-point scale” value (shortened to “PRE Application SETFA, percentage damage”) ([6]; applied at 500 g/h) was 3 (3=40-59%). For the same compound, the “PRE Application IPOHE, percentage damage on five-point scale” value (from here on “PRE Application IPOHE, percentage damage”) ([7]; applied) was 3 (3=40-59%), the “PRE Application ECHCG, percentage damage on five-point scale” value (“PRE Application ECHCG, percentage damage” for short) ([8]; applied at 500 g/h) was 3 (3=40-59%) and the “PRE Application ABUTH, percentage damage on five-point scale” value (“PRE Application ABUTH, percentage damage” for short) ([9]; applied at 500 g/h) was 5 (5=80-100%). The “PRE Application AMARE, percentage damage on five-point scale” value (“PRE Application AMARE, percentage damage” for short) ([10]; applied at 500 g/h) was 5 (5=80-100%).

With `CCC(=O)N(C)c1c(OC(F)F)ccc(C(=O)Nc2nnnn2C)c1Cl` [Compound 1.024] the “POST Application SETFA, percentage damage on five-point scale” value ([1]; applied at 125 g/ha) was 4 (4=60-79%), the “POST Application IPOHE, percentage damage on five-point scale” value ([2]; applied at 125 g/ha) was 4 (4=60-79%) and the “POST Application ECHCG, percentage damage on five-point scale” value ([3]; applied at 125 g/ha) was 4 (4=60-79%). For the same compound, the “POST Application ABUTH, percentage damage on five-point scale” value ([4]; applied at 125 g/ha) was 4 (4=60-79%), the “POST Application AMARE, percentage damage on five-point scale” value ([5]; applied at 125 g/ha) was 3 (3=40-59%) and the “PRE Application SETFA, percentage damage” value ([6]; applied at 125 g/ha) was 4 (4=60-79%). The “PRE Application IPOHE, percentage damage” value ([7]; applied at 125 g/ha) was 4 (4=60-79%), the “PRE Application ECHCG, percentage damage” value ([8]; applied at 125 g/ha) was 4 (4=60-79%) and the “PRE Application ABUTH, percentage damage” value ([9]; applied at 125 g/ha) was 5 (5=80-100%). For the same compound, the “PRE Application AMARE, percentage damage” value ([10]; applied at 125 g/ha) was 5 (5=80-100%).

With `CCn1nnnc1NC(=O)c1ccc(OC(F)(F)F)c(NC(=O)c2ccccc2OC)c1Cl` [Compound 1.123] the “POST Application SETFA, percentage damage on five-point scale” value ([1]; applied at 125 g/ha) was 4 (4=60-79%), the “POST Application IPOHE, percentage damage on five-point scale” value ([2]; applied at 125 g/ha) was 5 (5=80-100%) and the “POST Application ECHCG, percentage damage on five-point scale” value ([3]; applied at 125 g/ha) was 4 (4=60-79%). For the same compound, the “POST Application ABUTH, percentage damage on five-point scale” value ([4]; applied at 125 g/ha) was 4 (4=60-79%), the “POST Application AMARE, percentage damage on five-point scale” value ([5]; applied at 125 g/ha) was 4 (4=60-79%) and the “PRE Application SETFA, percentage damage” value ([6]; applied at 125 g/ha) was 4 (4=60-79%). The “PRE Application IPOHE, percentage damage” value ([7]; applied at 125 g/ha) was 2 (2=20-39%), the “PRE Application ECHCG, percentage damage” value ([8]; applied at 125 g/ha) was 3 (3=40-59%) and the “PRE Application ABUTH, percentage damage” value ([9]; applied at 125 g/ha) was 3 (3=40-59%). The “PRE Application AMARE, percentage damage” value ([10]; applied at 125 g/ha) was 3 (3=40-59%).

In the case of `CN(C)c1c(OC(F)(F)F)ccc(C(=O)Nc2nnnn2C)c1Cl` [Compound 1.001], the “POST Application SETFA, percentage damage on five-point scale” value ([1]; applied at 500 g/h) is reported as 5 (5=80-100%), the “POST Application IPOHE, percentage damage on five-point scale” value ([2]; applied at 500 g/h) is reported as 5 (5=80-100%) and the “POST Application ECHCG, percentage damage on five-point scale” value ([3]; applied at 500 g/h) is reported as 5 (5=80-100%). The “POST Application ABUTH, percentage damage on five-point scale” value ([4]; applied at 500 g/h) was 5 (5=80-100%), the “POST Application AMARE, percentage damage on five-point scale” value ([5]; applied at 500 g/h) was 5 (5=80-100%) and the “PRE Application SETFA, percentage damage” value ([6]; applied at 500 g/h) was 5 (5=80-100%). For the same compound, the “PRE Application IPOHE, percentage damage” value ([7]; applied) was 5 (5=80-100%), the “PRE Application ECHCG, percentage damage” value ([8]; applied at 500 g/h) was 5 (5=80-100%) and the “PRE Application ABUTH, percentage damage” value ([9]; applied at 500 g/h) was 5 (5=80-100%). For the same compound, the “PRE Application AMARE, percentage damage” value ([10]; applied at 500 g/h) was 5 (5=80-100%).

In the case of `CCn1nnnc1NC(=O)c1ccc(OC(F)F)c(NC(=O)CC2CC2)c1Cl` [Compound 1.131], the “POST Application SETFA, percentage damage on five-point scale” value ([1]; applied at 500 g/h) is reported as 4 (4=60-79%), the “POST Application IPOHE, percentage damage on five-point scale” value ([2]; applied at 500 g/h) is reported as 5 (5=80-100%) and the “POST Application ECHCG, percentage damage on five-point scale” value ([3]; applied at 500 g/h) is reported as 5 (5=80-100%). The “POST Application ABUTH, percentage damage on five-point scale” value ([4]; applied at 500 g/h) was 5 (5=80-100%), the “POST Application AMARE, percentage damage on five-point scale” value ([5]; applied at 500 g/h) was 5 (5=80-100%) and the “PRE Application SETFA, percentage damage” value ([6]; applied at 500 g/h) was 1 (1=0-19%). For the same compound, the “PRE Application IPOHE, percentage damage” value ([7]; applied) was 1 (1=0-19%), the “PRE Application ECHCG, percentage damage” value ([8]; applied at 500 g/h) was 3 (3=40-59%) and the “PRE Application ABUTH, percentage damage” value ([9]; applied at 500 g/h) was 5 (5=80-100%). The “PRE Application AMARE, percentage damage” value ([10]; applied at 500 g/h) was 5 (5=80-100%).

In the case of `CCn1nnnc1NC(=O)c1ccc(OC(F)(F)C(F)F)c(NC(=O)C2CC2)c1Cl` [Compound 1.102], the “POST Application SETFA, percentage damage on five-point scale” value ([1]; applied at 500 g/h) is reported as 5 (5=80-100%), the “POST Application IPOHE, percentage damage on five-point scale” value ([2]; applied at 500 g/h) is reported as 5 (5=80-100%) and the “POST Application ECHCG, percentage damage on five-point scale” value ([3]; applied at 500 g/h) is reported as 5 (5=80-100%). For the same compound, the “POST Application ABUTH, percentage damage on five-point scale” value ([4]; applied at 500 g/h) was 5 (5=80-100%), the “POST Application AMARE, percentage damage on five-point scale” value ([5]; applied at 500 g/h) was 5 (5=80-100%) and the “PRE Application SETFA, percentage damage” value ([6]; applied at 500 g/h) was 4 (4=60-79%). For the same compound, the “PRE Application IPOHE, percentage damage” value ([7]; applied) was 1 (1=0-19%), the “PRE Application ECHCG, percentage damage” value ([8]; applied at 500 g/h) was 5 (5=80-100%) and the “PRE Application ABUTH, percentage damage” value ([9]; applied at 500 g/h) was 4 (4=60-79%). The “PRE Application AMARE, percentage damage” value ([10]; applied at 500 g/h) was 5 (5=80-100%).

`Cc1nnc(NC(=O)c2ccc(OC(F)(F)F)c(N(C)C)c2Cl)o1` [Compound 2.001, 2-chloro-3-(dimethylamino)-N-(5-methyl-1,3,4-oxadiazol-2-yl)-4-(trifluoromethoxy)benzamide] was tested, and the “POST Application SETFA, percentage damage on five-point scale” value ([1]; applied at 500 g/h) was 5 (5=80-100%), the “POST Application IPOHE, percentage damage on five-point scale” value ([2]; applied at 500 g/h) was 5 (5=80-100%) and the “POST Application ECHCG, percentage damage on five-point scale” value ([3]; applied at 500 g/h) was 5 (5=80-100%). The “POST Application ABUTH, percentage damage on five-point scale” value ([4]; applied at 500 g/h) was 4 (4=60-79%), the “POST Application AMARE, percentage damage on five-point scale” value ([5]; applied at 500 g/h) was 5 (5=80-100%) and the “PRE Application SETFA, percentage damage” value ([6]; applied at 500 g/h) was 5 (5=80-100%). For the same compound, the “PRE Application IPOHE, percentage damage” value ([7]; applied) was 3 (3=40-59%), the “PRE Application ECHCG, percentage damage” value ([8]; applied at 500 g/h) was 5 (5=80-100%) and the “PRE Application ABUTH, percentage damage” value ([9]; applied at 500 g/h) was 4 (4=60-79%). For the same compound, the “PRE Application AMARE, percentage damage” value ([10]; applied at 500 g/h) was 5 (5=80-100%).
